Among the data in ChEMBL document CHEMBL3352541, “1-Phenylsulfinyl-3-(pyridin-3-yl)naphthalen-2-ols: a new class of potent and selective aldosterone synthase inhibitors” (Eur J Med Chem, 2015) are inhibition, Ratio IC50 and IC50 values, retold here.

In data set [1] the target is T1, Cytochrome P450 11B2, mitochondrial (Homo sapiens, UniProt P19099).
T1 sequence (P19099 whole entry): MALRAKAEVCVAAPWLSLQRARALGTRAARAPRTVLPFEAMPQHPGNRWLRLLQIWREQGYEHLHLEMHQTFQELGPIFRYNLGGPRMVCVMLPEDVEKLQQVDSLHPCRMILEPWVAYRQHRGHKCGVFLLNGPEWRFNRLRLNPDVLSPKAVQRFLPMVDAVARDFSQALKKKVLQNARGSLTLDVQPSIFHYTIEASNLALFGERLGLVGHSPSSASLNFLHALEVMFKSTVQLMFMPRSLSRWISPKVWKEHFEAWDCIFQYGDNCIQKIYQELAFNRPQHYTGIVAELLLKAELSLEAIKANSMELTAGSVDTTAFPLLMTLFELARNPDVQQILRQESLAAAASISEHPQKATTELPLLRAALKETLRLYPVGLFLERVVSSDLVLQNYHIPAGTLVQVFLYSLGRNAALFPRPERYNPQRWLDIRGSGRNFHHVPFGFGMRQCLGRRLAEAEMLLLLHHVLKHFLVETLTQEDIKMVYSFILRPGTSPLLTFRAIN
The class given is cell-based. The following applies: V79MZ, 1 h.

For the next data set, the system named is V79MZ. Kind of data set: Selectivity ratio of IC50 for human CYP11B1 expressed in hamster V79MZ cells to IC50 for human CYP11B2 expressed in hamster V79MZ cells. The class given is cell-based.
A further data set deals with T2, CYP17 (Homo sapiens, UniProt P05093).
T2 sequence (P05093 whole entry): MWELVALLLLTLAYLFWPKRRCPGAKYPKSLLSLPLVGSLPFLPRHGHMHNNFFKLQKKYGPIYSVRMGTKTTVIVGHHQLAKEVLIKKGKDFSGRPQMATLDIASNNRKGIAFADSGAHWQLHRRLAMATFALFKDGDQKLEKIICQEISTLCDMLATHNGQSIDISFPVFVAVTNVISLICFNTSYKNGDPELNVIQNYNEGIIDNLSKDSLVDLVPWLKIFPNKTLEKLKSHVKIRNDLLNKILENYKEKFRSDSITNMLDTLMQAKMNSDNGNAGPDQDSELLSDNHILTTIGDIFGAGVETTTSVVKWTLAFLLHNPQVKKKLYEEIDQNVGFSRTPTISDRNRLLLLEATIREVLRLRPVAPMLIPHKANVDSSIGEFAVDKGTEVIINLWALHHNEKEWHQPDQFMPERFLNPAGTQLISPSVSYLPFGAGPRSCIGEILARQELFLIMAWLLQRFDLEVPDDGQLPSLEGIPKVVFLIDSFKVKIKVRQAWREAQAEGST
Kind of data set: Inhibition of human recombinant CYP17 expressed in Escherichia coli using progesterone as substrate at 2 uM. Particulars: probe progesterone.

Another data set deals with T3, CYP19 (aromatase) (Homo sapiens, UniProt P11511).
T3 sequence (P11511 whole entry): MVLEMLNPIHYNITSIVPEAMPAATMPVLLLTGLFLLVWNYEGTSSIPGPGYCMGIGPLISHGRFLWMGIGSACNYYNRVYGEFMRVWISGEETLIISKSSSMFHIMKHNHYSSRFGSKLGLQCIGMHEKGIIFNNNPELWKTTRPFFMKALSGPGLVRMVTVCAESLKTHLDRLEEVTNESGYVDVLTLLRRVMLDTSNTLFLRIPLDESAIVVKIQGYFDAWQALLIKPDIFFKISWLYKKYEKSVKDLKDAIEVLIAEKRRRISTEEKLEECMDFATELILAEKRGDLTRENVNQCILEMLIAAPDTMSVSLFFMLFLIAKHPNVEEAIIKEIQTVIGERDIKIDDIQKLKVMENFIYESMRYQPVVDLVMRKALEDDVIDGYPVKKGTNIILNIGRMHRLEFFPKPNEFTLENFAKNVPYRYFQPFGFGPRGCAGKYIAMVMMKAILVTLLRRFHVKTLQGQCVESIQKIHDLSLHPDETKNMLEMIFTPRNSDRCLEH
Description: Inhibition of human recombinant CYP19 using [1beta3H]androstenedione as substrate at 500 nM. The following applies: recombinant human CYP19, probe [1beta3H]androstenedione.

Data set [2] addresses T1, Cytochrome P450 11B2, mitochondrial.
Description: Inhibition of human CYP11B2 expressed in hamster V79MZ cells using [3H]-11-deoxycorticosterone as substrate after 1 hr by HPLC analysis
Data set [3] concerns the target T4, Cytochrome P450 11B1, mitochondrial (Homo sapiens, UniProt P15538).
T4 sequence (P15538 whole entry): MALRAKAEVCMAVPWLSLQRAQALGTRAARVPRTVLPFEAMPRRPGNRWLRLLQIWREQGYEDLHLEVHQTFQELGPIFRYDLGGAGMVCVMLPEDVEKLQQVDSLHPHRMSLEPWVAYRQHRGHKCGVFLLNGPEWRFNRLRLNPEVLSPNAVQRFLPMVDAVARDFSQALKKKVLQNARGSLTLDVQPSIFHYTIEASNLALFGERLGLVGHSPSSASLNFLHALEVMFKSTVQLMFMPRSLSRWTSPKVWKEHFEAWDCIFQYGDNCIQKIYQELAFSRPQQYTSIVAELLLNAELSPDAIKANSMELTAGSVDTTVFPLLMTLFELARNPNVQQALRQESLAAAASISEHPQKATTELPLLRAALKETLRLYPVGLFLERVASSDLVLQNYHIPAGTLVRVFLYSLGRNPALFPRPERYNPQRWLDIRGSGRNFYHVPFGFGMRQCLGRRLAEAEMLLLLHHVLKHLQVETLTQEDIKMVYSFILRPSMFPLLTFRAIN
Description: Inhibition of human CYP11B1 expressed in hamster V79MZ cells using [3H]-11-deoxycorticosterone as substrate after 1 hr by HPLC analysis

The molecule `[O-][S+](c1ccc(Cl)c(Cl)c1)c1c(O)c(-c2cccnc2)cc2ccccc12` (stereo not drawn) registered an inhibition in data set [1] of 90%. In addition, the Ratio IC50 with V79MZ was 253. For the same molecule, the inhibition at 2 µM at CYP17 was below 5%. In addition, the inhibition at 0.5 µM on CYP19 (aromatase) is below 5%. Further, the figures for the IC50 in data set [2] and in data set [3] were 33 nM and 8330 nM, respectively.

`[O-][S+](c1ccccc1OC(F)(F)F)c1c(O)c(-c2cccnc2)cc2ccccc12` (stereo not drawn): the inhibition in data set [1] is 77%. In the data set on V79MZ, the Ratio IC50 is 84. Moreover, the inhibition at 2 µM on CYP17 was below 5%. In addition, the inhibition at 0.5 µM on CYP19 (aromatase) was below 5%. Moreover, the IC50 in data set [2] worked out at 56 nM; in data set [3], 4710 nM.

Regarding `[O-][S+](c1ccc(F)c(Cl)c1)c1c(O)c(-c2cccnc2)cc2ccccc12` (stereo not drawn), the inhibition in data set [1] came to 91%. Also, in the data set on V79MZ, the Ratio IC50 came to 123. In addition, the inhibition at 2 µM at CYP17 is below 5%. Further, the inhibition at 0.5 µM on CYP19 (aromatase) was below 5%. In addition, the IC50 in data set [2] was 53 nM; in data set [3], 6530 nM.

Regarding `[O-][S+](c1ccccc1C(F)(F)F)c1c(O)c(-c2cccnc2)cc2ccccc12` (stereo not drawn), the inhibition in data set [1] was determined as 86%. For the same molecule, the Ratio IC50 with V79MZ amounted to 96. The inhibition at 2 µM at CYP17 is below 5%. Also, the inhibition at 0.5 µM at CYP19 (aromatase) is below 5%. For the same molecule, the IC50 in data set [2] is 53 nM; in data set [3], 5080 nM.

`[O-][S+](c1cc(C(F)(F)F)cc(C(F)(F)F)c1)c1c(O)c(-c2cccnc2)cc2ccccc12` (stereo not drawn): the inhibition in data set [1] amounted to 78%. Also, the Ratio IC50 in the data set with V79MZ amounted to 283. Moreover, the inhibition at 2 µM on CYP17 is below 5%. Moreover, the inhibition at 0.5 µM at CYP19 (aromatase) was below 5%. Further, the IC50 is 33 nM in data set [2] and 9350 nM in data set [3].

Regarding `[O-][S+](c1ccccc1Cl)c1c(O)c(-c2cccnc2)cc2ccccc12` (stereo not drawn), the inhibition in data set [1] was 90%. The Ratio IC50 with V79MZ turned out to be 204. Further, the inhibition at 2 µM on CYP17 is below 5%. The inhibition at 0.5 µM at CYP19 (aromatase) is below 5%. The IC50 in data set [2] came to 22 nM; in data set [3], 4490 nM.

In the case of `N#Cc1ccc([S+]([O-])c2c(O)c(-c3cccnc3)cc3ccccc23)cc1` (stereo not drawn), in data set [1], the inhibition was determined as 47%.

Consider `c1ccc(Sc2cc(-c3cccnc3)cc3ccccc23)cc1`, for which the inhibition in data set [1] came to 15%.

For the molecule `[O-][S+](c1cccc(Cl)c1)c1c(O)c(-c2cccnc2)cc2ccccc12` (stereo not drawn), the inhibition in data set [1] turned out to be 90%. Besides, in the data set on V79MZ, the Ratio IC50 was 80. In addition, the inhibition at 2 µM at CYP17 is below 5%. At CYP19 (aromatase), the inhibition at 0.5 µM was below 5%. Moreover, the half-inhibitory concentration (IC50) in data set [2] amounted to 60 nM; in data set [3] it was 4800 nM.

`COc1ccccc1[S+]([O-])c1c(O)c(-c2cccnc2)cc2ccccc12` (stereo not drawn): the inhibition in data set [1] came to 86%. In addition, the Ratio IC50 in the data set with V79MZ is 17. At CYP17, the inhibition at 2 µM is below 5%. In addition, at CYP19 (aromatase), the inhibition at 0.5 µM is below 5%. Further, the IC50 in data set [2] came to 64 nM; in data set [3], 1100 nM.

`[O-][S+](c1cccs1)c1c(O)c(-c2cccnc2)cc2ccccc12` (stereo not drawn) showed an inhibition in data set [1] of 79%. In the data set with V79MZ, the Ratio IC50 came out at 32. Further, the inhibition at 2 µM at CYP17 was below 5%. Moreover, the inhibition at 0.5 µM at CYP19 (aromatase) is below 5%. In addition, the IC50 amounted to 192 nM in data set [2] and 6160 nM in data set [3].

In data set [1], `[O-][S+](c1ccccc1)c1c(O)c(-c2cccnc2)cc2ccccc12` (stereo not drawn) yielded an inhibition of 85%. In addition, the Ratio IC50 in the data set with V79MZ amounted to 203. Further, the inhibition at 2 µM at CYP17 was below 5%. Moreover, on CYP19 (aromatase), the inhibition at 0.5 µM is below 5%. Further, the IC50 in data set [2] amounted to 33 nM; in data set [3] it was 6710 nM.

With `O=S(=O)(c1ccccc1)c1cc2ccccc2cc1-c1cccnc1`, the inhibition in data set [1] is 16%.

With `COc1cccc(Sc2c(O)c(-c3cccnc3)cc3ccccc23)c1`, in data set [1], the inhibition was 20%.

`Oc1c(-c2cccnc2)cc2ccccc2c1Sc1ccccc1`: in data set [1], the inhibition was found to be 22%.

Take `[O-][S+](c1ccccc1)c1cc(-c2cccnc2)cc2ccccc12` (stereo not drawn): the inhibition in data set [1] is 33%.

Molecule `COc1ccc(Sc2c(O)c(-c3cccnc3)cc3ccccc23)cc1` had an inhibition in data set [1] of 22%.

The molecule `COc1ccccc1Sc1c(O)c(-c2cccnc2)cc2ccccc12` came in with an inhibition in data set [1] of 18%.
